In PubChem BioAssay (NCI):
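Assay format: 96-well plates, 48-hour exposure. GI50 = concentration required for 50% inhibition of growth. TGI denotes the concentration required for complete inhibition of growth.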

Experiments:
Assay in all cases: DTP human tumour cell line panel, 48 h
[1] = system: 786-0 renal
[2] = system: A498 renal
[3] = system: A549 NSCLC
[4] = system: ACHN renal
[5] = system: BT-549 breast
[6] = system: CAKI-1 renal
[7] = system: CCRF-CEM leukemia
[8] = system: COLO 205 colon
[9] = system: DU-145 prostate
[10] = system: EKVX NSCLC
[11] = system: HCC-2998 colon
[12] = system: HCT-15 colon
[13] = system: HL-60(TB) leukemia
[14] = system: HOP-62 NSCLC
[15] = system: HOP-92 NSCLC
[16] = system: HS 578T breast
[17] = system: HT29 colon
[18] = system: IGROV1 ovarian
[19] = system: K-562 leukemia
[20] = system: KM12 colon
[21] = system: LOX IMVI melanoma
[22] = system: M14 melanoma
[23] = system: MALME-3M melanoma
[24] = system: MCF7 breast
[25] = system: MDA-MB-231 breast
[26] = system: MDA-MB-435
[27] = system: MOLT-4 leukemia
[28] = system: NCI-H226 lung
[29] = system: NCI-H23 lung
[30] = system: NCI-H460 lung
[31] = system: NCI-H522 lung
[32] = system: NCI/ADR-RES ovarian
[33] = system: OVCAR-3 ovarian
[34] = system: OVCAR-4 ovarian
[35] = system: OVCAR-5 ovarian
[36] = system: OVCAR-8 ovarian
[37] = system: PC-3 prostate
[38] = system: RXF 393 renal
[39] = system: SF-268 CNS
[40] = system: SF-295 CNS
[41] = system: SF-539 CNS
[42] = system: SK-MEL-2 melanoma
[43] = system: SK-MEL-28 melanoma
[44] = system: SK-MEL-5 melanoma
[45] = system: SK-OV-3 ovarian
[46] = system: SN12C renal
[47] = system: SNB-19 CNS
[48] = system: SNB-75 CNS
[49] = system: SW-620 colon
[50] = system: T-47D breast
[51] = system: TK-10 renal
[52] = system: U251 CNS
[53] = system: UACC-257 melanoma
[54] = system: UACC-62 melanoma
[55] = system: UO-31 renal
[56] = system: HCT-116 colon
[57] = system: RPMI-8226 leukemia

COc1ccc(CC(C)=C(c2ccc(OCCN3CCCCCC3)cc2)c2ccc(OCCN3CCCCCC3)cc2)cc1
GI50 [1]: 0.0838 µM
TGI [1]: 0.159 µM
GI50 [2]: 0.513 µM
TGI [2]: 1.2 µM
GI50 [3]: 0.343 µM
TGI [3]: 1.02 µM
GI50 [4]: 0.135 µM
TGI [4]: 0.374 µM
GI50 [5]: 0.681 µM
TGI [5]: 1.37 µM
GI50 [6]: 0.345 µM
TGI [6]: 0.93 µM
GI50 [7]: 0.158 µM
TGI [7]: 0.609 µM
GI50 [8]: 0.0944 µM
TGI [8]: 0.182 µM
GI50 [9]: 0.275 µM
TGI [9]: 0.879 µM
GI50 [10]: 0.615 µM
TGI [10]: 1.3 µM
GI50 [11]: 0.0881 µM
TGI [11]: 0.182 µM
GI50 [12]: 0.121 µM
TGI [12]: 0.382 µM
GI50 [13]: 0.099 µM
TGI [13]: 0.229 µM
GI50 [14]: 0.626 µM
TGI [14]: 1.28 µM
GI50 [15]: 0.254 µM
TGI [15]: 0.986 µM
GI50 [16]: 0.175 µM
TGI [16]: 0.757 µM
GI50 [17]: 0.0843 µM
TGI [17]: 0.181 µM
GI50 [18]: 0.37 µM
TGI [18]: 1.02 µM
GI50 [19]: 0.0987 µM
TGI [19]: 0.22 µM
GI50 [20]: 0.24 µM
TGI [20]: 0.823 µM
GI50 [21]: 0.0875 µM
TGI [21]: 0.161 µM
GI50 [22]: 0.0886 µM
TGI [22]: 0.171 µM
GI50 [23]: 0.09 µM
TGI [23]: 0.171 µM
GI50 [24]: 0.0872 µM
TGI [24]: 0.187 µM
GI50 [25]: 0.176 µM
TGI [25]: 0.487 µM
GI50 [26]: 0.0891 µM
TGI [26]: 0.166 µM
GI50 [27]: 0.133 µM
TGI [27]: 0.406 µM
GI50 [28]: 0.531 µM
TGI [28]: 1.42 µM
GI50 [29]: 0.709 µM
TGI [29]: 1.41 µM
GI50 [30]: 0.1 µM
TGI [30]: 0.186 µM
GI50 [31]: 0.443 µM
TGI [31]: 1.2 µM
GI50 [32]: 0.655 µM
TGI [32]: 1.41 µM
GI50 [33]: 0.113 µM
TGI [33]: 0.239 µM
GI50 [34]: 0.432 µM
TGI [34]: 1.11 µM
GI50 [35]: 0.631 µM
TGI [35]: 1.26 µM
GI50 [36]: 0.607 µM
TGI [36]: 1.45 µM
GI50 [37]: 0.265 µM
TGI [37]: 0.86 µM
GI50 [38]: 0.348 µM
TGI [38]: 1.05 µM
GI50 [39]: 0.474 µM
TGI [39]: 1.15 µM
GI50 [40]: 0.3 µM
TGI [40]: 0.861 µM
GI50 [41]: 0.0978 µM
TGI [41]: 0.194 µM
GI50 [42]: 0.756 µM
TGI [42]: 1.5 µM
GI50 [43]: 0.0911 µM
TGI [43]: 0.166 µM
GI50 [44]: 0.119 µM
TGI [44]: 0.312 µM
GI50 [45]: 0.612 µM
TGI [45]: 1.24 µM
GI50 [46]: 0.657 µM
TGI [46]: 1.35 µM
GI50 [47]: 0.232 µM
TGI [47]: 0.817 µM
GI50 [48]: 0.487 µM
TGI [48]: 1.16 µM
GI50 [49]: 0.089 µM
TGI [49]: 0.179 µM
GI50 [50]: 0.219 µM
TGI [50]: 0.955 µM
GI50 [51]: 0.729 µM
TGI [51]: 1.47 µM
GI50 [52]: 0.107 µM
TGI [52]: 0.259 µM
GI50 [53]: 0.108 µM
TGI [53]: 0.262 µM
GI50 [54]: 0.0987 µM
TGI [54]: 0.199 µM
GI50 [55]: 0.308 µM
TGI [55]: 0.929 µM

COc1cc(/C=C/c2cc(/C=C/c3ccc(O)c(OC)c3)n(-c3c(Cl)cccc3Cl)c(=O)n2)ccc1O
GI50 [1]: 2.74 µM
TGI [1]: 8.51 µM
GI50 [2]: 3.79 µM
TGI [2]: 13.2 µM
GI50 [3]: 4.03 µM
TGI [3]: 15 µM
GI50 [4]: 2.84 µM
TGI [4]: 12.7 µM
GI50 [5]: 2.07 µM
TGI [5]: 6.67 µM
GI50 [6]: 14.6 µM
TGI [6]: 30 µM
GI50 [7]: 3.21 µM
TGI [7]: 70.6 µM
GI50 [8]: 2.84 µM
TGI [8]: 8.95 µM
GI50 [9]: 3.48 µM
TGI [9]: 13 µM
GI50 [10]: 3.26 µM
TGI [10]: 14.8 µM
GI50 [11]: 1.83 µM
TGI [11]: 3.53 µM
GI50 [56]: 1.31 µM
TGI [56]: 5.25 µM
GI50 [12]: 2.44 µM
TGI [12]: 9.66 µM
GI50 [13]: 2.64 µM
TGI [13]: 14.4 µM
GI50 [14]: 3.41 µM
TGI [14]: 12.8 µM
GI50 [15]: 4.22 µM
TGI [15]: 16.4 µM
GI50 [16]: 5.48 µM
TGI [16]: > 100 µM
GI50 [17]: 1.77 µM
TGI [17]: 3.36 µM
GI50 [18]: 3.01 µM
TGI [18]: 12.3 µM
GI50 [19]: 3.11 µM
TGI [19]: > 100 µM
GI50 [20]: 2.02 µM
TGI [20]: 5.27 µM
GI50 [21]: 1.68 µM
TGI [21]: 3.57 µM
GI50 [22]: 2.38 µM
TGI [22]: 6.87 µM
GI50 [23]: 3.88 µM
TGI [23]: 15.7 µM
GI50 [24]: 2 µM
TGI [24]: 11 µM
GI50 [25]: 3.65 µM
TGI [25]: 15.1 µM
GI50 [26]: 1.63 µM
TGI [26]: 5.98 µM
GI50 [27]: 3.38 µM
TGI [27]: 22.6 µM
GI50 [28]: 3.27 µM
TGI [28]: 9.44 µM
GI50 [29]: 2.38 µM
TGI [29]: 6.68 µM
GI50 [30]: 3.39 µM
TGI [30]: 11.8 µM
GI50 [31]: 1.55 µM
TGI [31]: 3.23 µM
GI50 [32]: 3.53 µM
TGI [32]: 22 µM
GI50 [33]: 3.19 µM
TGI [33]: 12.1 µM
GI50 [34]: 4.61 µM
TGI [34]: 16.9 µM
GI50 [35]: 2.76 µM
TGI [35]: 11 µM
GI50 [36]: 3.34 µM
TGI [36]: 10.5 µM
GI50 [37]: 4.68 µM
TGI [37]: 25.3 µM
GI50 [57]: 2.96 µM
TGI [57]: 22.7 µM
GI50 [38]: 2.18 µM
TGI [38]: 4.92 µM
GI50 [39]: 3.12 µM
TGI [39]: 13.7 µM
GI50 [40]: 2.87 µM
TGI [40]: 9.52 µM
GI50 [41]: 2.18 µM
TGI [41]: 6.92 µM
GI50 [42]: 3.3 µM
TGI [42]: 12.9 µM
GI50 [43]: 2.74 µM
TGI [43]: 10.1 µM
GI50 [44]: 2.18 µM
TGI [44]: 4.86 µM
GI50 [45]: 2.78 µM
TGI [45]: 10.6 µM
GI50 [46]: 4.82 µM
TGI [46]: 19.5 µM
GI50 [47]: 3.54 µM
TGI [47]: 13.2 µM
GI50 [49]: 3.11 µM
TGI [49]: 10.5 µM
GI50 [50]: 3.44 µM
TGI [50]: 22.7 µM
GI50 [51]: 2.91 µM
TGI [51]: 10.1 µM
GI50 [52]: 2.37 µM
TGI [52]: 6.36 µM
GI50 [53]: 3.32 µM
TGI [53]: 11.3 µM
GI50 [54]: 2.59 µM
TGI [54]: 7.42 µM
GI50 [55]: 2.74 µM
TGI [55]: 12.3 µM
